Data: US20250025480A1, “METHODS AND PHARMACEUTICAL COMPOSITIONS FOR THE TREATMENT OF CHOROIDAL NEOVASCULARISATION” (INSERM (INSTITUT NATIONAL DE LA SANTE ET DE LA RECHERCHE …, priority 2015, published 2025)

Assays:
Format in all cases: in vivo
[1] = test system: choroidal neovascularisation (CNV) induced by laser in rat eyes; test: CNV volume quantification on RPE-choroid flatmounts (FITC-GSL I-Isolectin B4) in rat laser-induced CNV
Protocol: (§1) All experiments were performed in accordance with the European Communities Council Directive 86/609/EEC and approved by local ethical committees (Ce5/2012/113). Six to eight-week old male Brown Norway rats from Janvier breeding Center (Le Genest-Saint-Isle, France) were used to create rat model of CNV. Vascular endothelial cell-specific MR knock-out mice (EC-MR-KO) and monocyte/macrophage-specific MR knock-out mice (MC-MR-KO) were generated in C57BL/6 genetic background mice and were obtained from team of Dr F. Jaisser (UMRS 1138, team 1). EC-MR-KO mice were created by mating transgenic mice expressing Cre recombinase in endothelial cells with mice harbouring MR-floxed alleles (Berger S et al. Loss of limbic mineralocorticoid receptor impairs behavioural plasticity. PNAS USA 2006). MC-MR-KO mice were obtained by mating mice expressing Cre recombinase in monocytes/macrophages (Clausen BE et al. Conditional gene targeting in macrophages and granulocytes using LysMcre mice. Trangenic Research 1999) with mice harbouring MR-floxed alleles. […]
The deepest focal plane in which the surrounding choroidal vascular network connecting to the lesion could be identified was judged to be the floor of the CNV lesion. The area of CNV-related fluorescence on each horizontal section was measured using ImageJ software. […]

[2] = test system: choroidal neovascularisation (CNV) induced by laser in rat eyes; test: Fluorescein angiography grading of vascular leakage in rat model of laser-induced CNV; conditions: 14 days after laser, versus laser control, spironolactone subcutaneous 25 mg/kg/day, anti-VEGF intravitreous at day 0
Protocol: as §1, with “alleles. Animals were kept in pathogen-free conditions with food, water and litter and housed in a 12-hour light/12-hour dark cycle.” for “alleles.”
FA was performed 14 days (in rats) or 10 days (in mice) after laser induction. […] Early and late phase angiograms were recorded 1-3 and 5-7 min respectively after fluorescein injection. […]

[3] = test system: macrophage/microglial recruitment; test: IBA1 immunofluorescence count of activated macrophage/microglial cells in laser burns on RPE-choroid flatmounts; conditions: rat, day 3 after laser, subcutaneous spironolactone; P<0.05
Protocol: (§2) After anesthesia and dilation of the pupils, coverslips were positioned on the cornea as a contact glass. For rats, six to eight burns were performed 2 to 3-disk diameters away from the papillae with an Argon laser (532 nm) mounted on a slit lamp (170 mW, 0.1 second and 50 μm). For mice, four laser burns were induced at the 3, 6, 9 and 12 o'clock positions around the optic disc (250 mW, 0.05 second and 50 μm). The presence of a bubble witnessed the rupture of Bruch's membrane and confirmed the success of the laser impact.
Treatments were introduced only in rat model of CNV. After laser photocoagulation, rats were divided into 6 groups: 1) non-treated; 2) daily subcutaneous injection of spironolactone diluted in oliver oil and DMSO (25 mg/kg/day) until sacrifice; 3) daily subcutaneous injection of vehicle (oliver oil and DMSO) until sacrifice; 4) intravitreous injection (IVT) of anti-rat VEGF (1.5 μg/μl, 5 μl, RnD system, Lille, France) only at day 0 (Couturier A et al. Anti-vascular endothelial growth factor acts on retinal microglia/macrophage activation in a rat model of ocular inflammation. […]
Three days after laser induction (peak of macrophage infiltration), rat RPE-choroidal flatmounts were also prepared for immunofluorescence. […] IBAI positive macrophage/microglial cells were counted on stained laser lesions. The average cell number/per impact/rat eye was calculated.

[4] = test system: Transcript levels of MCP1, IL6, IL1β, TNFα, VEGF-A and PIGF; test: Quantitative PCR of rat neuroretina and RPE-choroid complex 3 days after laser; conditions: day 3, subcutaneous spironolactone
Protocol: as §2
Treatments were introduced only in rat model of CNV. After laser photocoagulation, rats were divided into 6 groups: 1) non-treated; 2) daily subcutaneous injection of spironolactone diluted in oliver oil and DMSO (25 mg/kg/day) until sacrifice; 3) daily subcutaneous injection of vehicle (oliver oil and DMSO) until sacrifice; 4) intravitreous injection (IVT) of anti-rat VEGF (1.5 μg/μl, 5 μl, RnD system, Lille, France) only at day 0 (Couturier A et al. Anti-vascular endothelial growth factor acts on retinal microglia/macrophage activation in a rat model of ocular inflammation. Mol Vis 2014;20:908-20); 5) IVT of spironolactone-loaded PLGA MPs only at day 0 (2.2 μg/μl, 5 μl, obtained from team of Pr R. Herrero-Vanrell, Complutense University of Madrid). Considering the ex vivo release profile of Spi-MPs, the daily dose of spironolactone released in the vitreous is estimated at 18 μM; 6) IVT of blank PLGA MPs (5 μl) only at day 0.
Three days after laser induction, rat neuroretinas and RPE-choroid-sclera complexes were carefully dissected from enulcated eyes and snap-frozen in liquid nitrogen and stored at −80° C. until use. Total RNA was isolated from tissues using RNeasy Plus Mini Kit (Qiagen, Courtaboeuf, France) according to the manufacturer's instructions. First-strand complementary DNA was synthesized from total mRNA using random primers (Life Technologies, Cergy Pontoise, France) and SuperScript II reverse transcriptase (Life Technologies). Transcript levels of MR, MCP1, IL6, IL1β, TNFα, VEGF-A and PIGF were analyzed by quantitative real-time PCR performed in 7500 Real-Time PCR System (Applied Biosystems, Foster City, CA, USA) with either SYBR Green or TaqMan detection.

[5] = RPE-choroid complex and neuroretina

SMILES: CC(=O)S[C@@H]1CC2=CC(=O)CC[C@]2(C)[C@H]2CC[C@@]3(C)[C@@H](CC[C@@]34CCC(=O)O4)[C@H]12 [spironolactone, 17-hydroxy-7α-mercapto-3-oxo-17α-pregn-4-ene-21-carboxylic acid γ-lactone acetate]
- CNV volume compared to laser control ([1]; RPE/choroid flatmounts 16 days after laser, spironolactone subcutaneous, anti-VEGF intravitreous, P<0.01): significant decrease
- CNV development ([1]; systemic administration of spironolactone): limits the CNV development
- decrease in angiographic score (grading of vascular leakage on FA) [2]: −45%
- activated IBA1 positive macrophage/microglia in laser burns versus laser control [3]: significant fewer
- expression of PIGF at RNA level [4, 5]: not regulated
- expression of VEGF-A at RNA level [4, 5]: not regulated
- laser-induced gene expression of IL1β ([4]; RPE-choroid complex): down-regulates
- laser-induced gene expression of IL6 ([4]; RPE-choroid complex): down-regulates
- laser-induced gene expression of MCP1 ([4]; RPE-choroid complex): down-regulates
- laser-induced gene expression of TNFα ([4]; RPE-choroid complex): down-regulates
- laser-induced gene expression of IL1β ([4]; neuroretina): down-regulates
- laser-induced gene expression of MCP1 ([4]; neuroretina): down-regulates
- laser-induced gene expression of TNFα ([4]; neuroretina): down-regulates
